Test results reported in ChEMBL document CHEMBL1135541, “Synthesis, biological properties, and molecular modeling investigation of the first potent, selective, and water-soluble human A(3) adenosine receptor antagonist” (J Med Chem, 2002).

Tests used:
[1] = biological target: T1, Adenosine receptor A3 (Homo sapiens, UniProt P0DMS8); assay: Inhibitory activity against Human Adenosine A3 receptor expressed in CHO cells; assay type: cell-based
T1 sequence (P0DMS8 whole entry): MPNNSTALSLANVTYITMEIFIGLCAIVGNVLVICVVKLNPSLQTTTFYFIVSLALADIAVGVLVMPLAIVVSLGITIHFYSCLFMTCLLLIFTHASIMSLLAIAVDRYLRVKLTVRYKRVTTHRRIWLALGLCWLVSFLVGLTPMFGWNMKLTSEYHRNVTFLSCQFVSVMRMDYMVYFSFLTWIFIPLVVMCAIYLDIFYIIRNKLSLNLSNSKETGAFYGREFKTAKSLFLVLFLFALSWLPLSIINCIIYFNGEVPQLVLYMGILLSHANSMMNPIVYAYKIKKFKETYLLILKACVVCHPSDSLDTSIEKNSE

[2] = biological target: Adenosine receptors; A1 & A3 (Homo sapiens) (UniProt P30542+P0DMS8); assay: Selectivity as ratio of Ki for human adenosine A1 and A3 receptors; assay type: protein assay
[3] = biological target: Adenosine receptors; A2a & A3 (Homo sapiens) (UniProt P0DMS8+P29274); assay: Selectivity as ratio of Ki for human adenosine A2A and A3 receptors; assay type: protein assay
Adenosine receptors; A2a & A3 (Homo sapiens), sequence (P29274 whole entry, looked up, one chain of several): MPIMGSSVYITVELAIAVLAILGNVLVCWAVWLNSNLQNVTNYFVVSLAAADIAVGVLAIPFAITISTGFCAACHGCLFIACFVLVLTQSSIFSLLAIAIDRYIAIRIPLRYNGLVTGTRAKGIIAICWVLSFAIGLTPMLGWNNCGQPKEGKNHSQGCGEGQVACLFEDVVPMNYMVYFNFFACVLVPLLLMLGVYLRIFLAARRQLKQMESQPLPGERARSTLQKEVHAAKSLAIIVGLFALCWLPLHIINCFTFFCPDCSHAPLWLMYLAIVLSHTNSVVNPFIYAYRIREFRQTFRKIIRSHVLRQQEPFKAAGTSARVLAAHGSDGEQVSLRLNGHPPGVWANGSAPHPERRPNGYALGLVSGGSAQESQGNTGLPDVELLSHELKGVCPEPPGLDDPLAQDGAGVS

[4] = biological target: Adenosine receptors; A2b & A3 (Homo sapiens) (UniProt P29275+P0DMS8); assay: Selectivity as ratio of Ki for human A2b and A3 receptors; assay type: protein assay
[5] = biological target: T2, Adenosine receptor A1 (Rattus norvegicus, UniProt P25099); assay: Binding affinity against rat adenosine A1 receptor […]; assay type: cell-based
T2 sequence (P25099 whole entry): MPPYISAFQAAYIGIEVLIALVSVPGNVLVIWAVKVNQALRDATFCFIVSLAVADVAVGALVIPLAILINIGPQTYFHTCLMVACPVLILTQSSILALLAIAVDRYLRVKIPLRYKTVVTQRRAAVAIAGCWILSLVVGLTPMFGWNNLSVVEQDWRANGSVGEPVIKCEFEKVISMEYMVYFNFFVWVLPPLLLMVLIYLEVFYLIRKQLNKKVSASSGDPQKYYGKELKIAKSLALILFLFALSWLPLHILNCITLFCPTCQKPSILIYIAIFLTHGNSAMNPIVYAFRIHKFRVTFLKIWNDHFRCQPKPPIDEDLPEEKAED

[6] = biological target: T3, Adenosine receptor A3 (Rattus norvegicus, UniProt P28647); assay: Binding affinity against rat adenosine A3 receptor in RBL-2H3 cells; assay type: cell-based
T3 sequence (P28647 whole entry): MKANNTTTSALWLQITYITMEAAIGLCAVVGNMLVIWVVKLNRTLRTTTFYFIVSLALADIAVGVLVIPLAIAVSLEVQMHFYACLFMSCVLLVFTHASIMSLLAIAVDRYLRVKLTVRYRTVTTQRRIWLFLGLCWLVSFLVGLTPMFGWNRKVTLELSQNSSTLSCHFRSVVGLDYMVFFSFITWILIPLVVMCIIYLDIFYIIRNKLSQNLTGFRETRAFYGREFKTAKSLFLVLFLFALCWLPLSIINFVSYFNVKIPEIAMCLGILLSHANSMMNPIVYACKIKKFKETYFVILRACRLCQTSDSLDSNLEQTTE

[7] = biological target: Adenosine receptor A2a (Rattus norvegicus, UniProt P30543); assay: Binding affinity against rat adenosine A2A receptor […]; assay type: cell-based
Adenosine receptor A2a, sequence (P30543 whole entry): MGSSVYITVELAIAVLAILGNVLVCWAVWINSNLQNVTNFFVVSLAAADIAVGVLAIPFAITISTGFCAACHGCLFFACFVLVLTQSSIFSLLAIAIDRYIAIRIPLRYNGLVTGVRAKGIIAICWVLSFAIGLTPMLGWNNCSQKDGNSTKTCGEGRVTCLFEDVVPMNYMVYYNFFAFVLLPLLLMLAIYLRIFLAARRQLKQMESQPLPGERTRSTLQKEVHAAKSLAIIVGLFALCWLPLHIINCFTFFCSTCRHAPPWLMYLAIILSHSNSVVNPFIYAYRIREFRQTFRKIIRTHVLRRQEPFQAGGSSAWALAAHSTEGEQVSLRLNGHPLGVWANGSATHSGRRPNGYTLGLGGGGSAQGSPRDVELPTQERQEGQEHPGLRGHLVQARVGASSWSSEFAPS

[8] = The hydrophobicity was measured in reverse-phase TLC experiments and reported as Rm values; Rm = log(1/Rf - 1)
[9] = biological target: T4, Adenosine receptor A3 (Rattus norvegicus) (UniProt P28647); settings: RBL-2H3, 1 uM
T4 sequence (whole entry): T3 sequence (P28647 whole entry)
Description: Inhibitory activity against binding of [125I]I-AB-MECA to Adenosine A3 receptor in membranes of rat basophilic RBL-2H3 cells at 1 uM

[10] = biological target: T5, Adenosine receptor A3 (Homo sapiens) (UniProt P0DMS8); settings: CHO
T5 sequence (whole entry): T1 sequence (P0DMS8 whole entry)
Description: Antagonistic activity against Cl-IB-MECA26-induced inhibition of forskolin-stimulated cAMP in CHO cells expressing human Adenosine A3 receptor

Cn1cc2c(nc(NC(=O)Nc3ccccc3)n3nc(-c4ccco4)nc23)n1
IC50 [1]: 2.1 nM | Selectivity [2]: 3710 | Selectivity [3]: 2380 | Selectivity [4]: 1390

Cn1cc2c(nc(NC(=O)Nc3ccncc3)n3nc(-c4ccco4)nc23)n1
Ki [5]: 226 nM | Ki [6]: > 1000 nM | Ki [7]: 97.6 nM | Rm [8]: 3.06 | inhibition [9]: 35% | K B [10]: 0.2 nM

Cn1cc2c(nc(NC(=O)Nc3ccc(S(=O)(=O)O)cc3)n3nc(-c4ccco4)nc23)n1
Selectivity [2]: > 400 | Selectivity [3]: 24 | Selectivity [4]: > 400
